Values of other authors in US20200281206A1, “SEXUAL ATTRACTION PHEROMONE OF TRIBOLIUM CASTANEUM AND INSECT CONTROL DEVICE” (YPF TECNOLOGÍA S.A., priority 2019, published 2020).

Test system: Tribolium castaneum
Conditions: prior-art finding

SMILES: CCC(C)CCCC(C)CCC=O (stereo not shown) [4,8-dimethyldecanal]
- sex of insects attracted: attracts both male and female insects
